Measured values as given in the supplement of paper PMC10307832.

Legend:
Assay in all cases: relative viability (nuclei count vs DMSO), 5 days (fraction); higher = more cells survive
[1] = compound: COc1cc(N2CCC(N3CCN(C)CC3)CC2)ccc1Nc1ncc(Cl)c(Nc2ccccc2S(=O)(=O)C(C)C)n1 [NVP-TAE684] + C[C@]1(O)C[C@@H](c2nc(-c3ccc4ccc(-c5ccccc5)nc4c3)c3c(N)nccn32)C1 [Linsitinib] (partner 1 µM)
How it was run: (§1)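 Relative viability equals treated-well nuclei counts divided by vehicle-well nuclei counts. Counts came from 4× images of lung cancer cell lines grown in 1536-well plates for 5 days after pin-tool dosing on the day after seeding. Dosing used one drug alone or a fixed anchor-drug dose plus five library-drug doses (not always all listed) in √10 steps, and values are medians of duplicate plates.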

[2] = compound: C1=CC=C2C(=C1)N=C(S2)C(C#N)C3=NC(=NC=C3)NCCC4=CN=CC=C4 + Cc1nc(Nc2ncc(C(=O)Nc3c(C)cccc3Cl)s2)cc(N2CCN(CCO)CC2)n1 [Dasatinib] (partner 0.075 µM)
How it was run: as §1

[3] = compound: C#Cc1cccc(Nc2ncnc3cc(OC)c(OCCCCCCC(=O)NO)cc23)c1 [CUDC-101] + COc1cccc2cc(-c3nc([C@H]4CC[C@H](C(=O)O)CC4)n4ncnc(N)c34)[nH]c12 [OSI-027] (partner 0.5 µM)
How it was run: as §1

[4] = compound: COc1cc2/c(=N/c3ccc(Br)cc3F)nc[nH]c2cc1OCC1CCN(C)CC1 [Vandetanib] + Nc1ncn([C@H]2C[C@H](O)[C@@H](CO)O2)c(=O)n1 [Decitabine] (partner 2 µM)
How it was run: as §1

Cell Line: NCI-H1975
- relative viability ([1]; first compound 0.2 µM): 1.01
- relative viability ([1]; first compound 0.6325 µM): 0.97
- relative viability ([1]; first compound 2 µM): 0.269
- relative viability ([2]; first compound 0.005 µM): 0.352
- relative viability ([2]; first compound 0.01581 µM): 0.333
- relative viability ([2]; first compound 0.05 µM): 0.35
- relative viability ([2]; first compound 0.1581 µM): 0.37
- relative viability ([2]; first compound 0.5 µM): 0.24
- relative viability ([3]; first compound 0.01 µM): 0.658
- relative viability ([3]; first compound 0.03162 µM): 0.75
- relative viability ([3]; first compound 0.1 µM): 0.728
- relative viability ([3]; first compound 0.3162 µM): 0.813
- relative viability ([3]; first compound 1 µM): 0.698
- relative viability ([4]; first compound 0.02 µM): 0.399
- relative viability ([4]; first compound 0.06325 µM): 0.401
- relative viability ([4]; first compound 0.2 µM): 0.422
- relative viability ([4]; first compound 0.6325 µM): 0.419
- relative viability ([4]; first compound 2 µM): 0.387

Cell Line: NCI-H647
- relative viability ([1]; first compound 0.2 µM): 1.49
- relative viability ([1]; first compound 0.6325 µM): 1.09
- relative viability ([1]; first compound 2 µM): 0.522
- relative viability ([2]; first compound 0.005 µM): 0.128
- relative viability ([2]; first compound 0.01581 µM): 0.188
- relative viability ([2]; first compound 0.05 µM): 0.219
- relative viability ([2]; first compound 0.1581 µM): 0.24
- relative viability ([2]; first compound 0.5 µM): 0.135
- relative viability ([3]; first compound 0.01 µM): 0.68
- relative viability ([3]; first compound 0.03162 µM): 0.668
- relative viability ([3]; first compound 0.1 µM): 0.783
- relative viability ([3]; first compound 0.3162 µM): 0.596
- relative viability ([3]; first compound 1 µM): 0.383
- relative viability ([4]; first compound 0.02 µM): 0.356
- relative viability ([4]; first compound 0.06325 µM): 0.396
- relative viability ([4]; first compound 0.2 µM): 0.349
- relative viability ([4]; first compound 0.6325 µM): 0.35
- relative viability ([4]; first compound 2 µM): 0.41

Cell Line: NCI-H322M
- relative viability ([1]; first compound 0.2 µM): 0.805
- relative viability ([1]; first compound 0.6325 µM): 0.862
- relative viability ([1]; first compound 2 µM): 0.872
- relative viability ([2]; first compound 0.005 µM): 0.232
- relative viability ([2]; first compound 0.01581 µM): 0.238
- relative viability ([2]; first compound 0.05 µM): 0.23
- relative viability ([2]; first compound 0.1581 µM): 0.259
- relative viability ([2]; first compound 0.5 µM): 0.26
- relative viability ([3]; first compound 0.01 µM): 0.679
- relative viability ([3]; first compound 0.03162 µM): 0.555
- relative viability ([3]; first compound 0.1 µM): 0.518
- relative viability ([3]; first compound 0.3162 µM): 0.417
- relative viability ([3]; first compound 1 µM): 0.308
- relative viability ([4]; first compound 0.02 µM): 0.688
- relative viability ([4]; first compound 0.06325 µM): 0.658
- relative viability ([4]; first compound 0.2 µM): 0.763
- relative viability ([4]; first compound 0.6325 µM): 0.718
- relative viability ([4]; first compound 2 µM): 0.577
